Laboratory results as given in ChEMBL document CHEMBL5252592, “Design, synthesis, and biological activity evaluation of novel tubulin polymerization inhibitors based on pyrimidine ring skeletons” (Bioorg Med Chem Lett, 2023).
The source made the active and inactive calls. The rule behind the calls is not given here.

What was measured:
[1] = tested on: HepG2; assay: Induction of apoptosis in human HepG2 cells assessed as early apoptotic cells at 50 nM incubated for 48 hrs by AnnexinV-FITC/PI staining based flow cytometric analysis (reference value: 1.83%); type: functional
[2] = molecular target: T1, Tubulin (Homo sapiens) (UniProt P68371+Q9H4B7+P0DPH7+P68366+Q13509+Q71U36+P04350+Q3ZCM7+P07437+P68363+Q9BQE3+Q6PEY2+Q13885+Q9BVA1+Q9BUF5); assay: Disruption of microtubule organization in human HepG2 cells assessed as diffused intracellular microtubules at 50 to 200 nM by immunofluorescence staining based laser confocal microscopic analysis; type: cell-based; details: dose 50-200 nM
[3] = tested on: HepG2; assay: Induction of apoptosis in human HepG2 cells assessed as total apoptotic cells at 200 nM incubated for 48 hrs by AnnexinV-FITC/PI staining based flow cytometric analysis (reference value: 5.16%); type: functional
[4] = tested on: HepG2; assay: Induction of apoptosis in human HepG2 cells assessed as early apoptotic cells at 200 nM incubated for 48 hrs by AnnexinV-FITC/PI staining based flow cytometric analysis (reference value: 1.83%); type: functional
[5] = tested on: Y79; assay: Antiproliferative activity against human Y79 cells assessed as inhibition of cell growth; type: functional, cell-based
[6] = tested on: HepG2; assay: Induction of cell cycle arrest in human HepG2 cells assessed as decrease in G1 phase cells at 100 nM incubated for 24 hrs by PI staining based flow cytometric analysis (reference value: 73.85%); type: functional; design: scale not given: the % may be the effect or the level left
[7] = tested on: HepG2; assay: Induction of apoptosis in human HepG2 cells assessed as late apoptotic cells at 200 nM incubated for 48 hrs by AnnexinV-FITC/PI staining based flow cytometric analysis (reference value: 3.33%); type: functional
[8] = tested on: HepG2; assay: Induction of apoptosis in human HepG2 cells assessed as viable cells at 50 nM incubated for 48 hrs by AnnexinV-FITC/PI staining based flow cytometric analysis (reference value: 92.0%); type: functional; details: read-out: Activity
[9] = tested on: HepG2; assay: Induction of cell cycle arrest in human HepG2 cells assessed as decrease in G1 phase cells at 200 nM incubated for 24 hrs by PI staining based flow cytometric analysis (reference value: 73.85%); type: functional; design: scale not given: the % may be the effect or the level left
[10] = molecular target: T1, Tubulin (Homo sapiens); assay: Disruption of microtubule organization in human HepG2 cells assessed as round or polygonal shaped cells at 50 to 200 nM by immunofluorescence staining based laser confocal microscopic analysis; type: cell-based; details: dose 50-200 nM
[11] = tested on: HepG2; assay: Induction of cell cycle arrest in human HepG2 cells assessed as increase in G2 phase cells at 50 nM incubated for 24 hrs by PI staining based flow cytometric analysis (reference value: 13.40%); type: functional
[12] = tested on: HepG2; assay: Antiinvasive activity in human HepG2 cells assessed as decrease in cells invading inferior chamber by transwell assay; type: functional, cell-based; details: dose 50-200 nM
[13] = tested on: HepG2; assay: Induction of apoptosis in human HepG2 cells assessed as total apoptotic cells at 50 nM incubated for 48 hrs by AnnexinV-FITC/PI staining based flow cytometric analysis (reference value: 5.16%); type: functional
[14] = tested on: U-937; assay: Antiproliferative activity against human U-937 cells assessed as inhibition of cell growth; type: functional, cell-based
[15] = tested on: HepG2; assay: Induction of cell cycle arrest in human HepG2 cells assessed as decrease in S phase cells at 50 nM incubated for 24 hrs by PI staining based flow cytometric analysis (reference value: 12.75%); type: functional; design: scale not given: the % may be the effect or the level left
[16] = tested on: HepG2; assay: Induction of apoptosis in human HepG2 cells assessed as late apoptotic cells at 50 nM incubated for 48 hrs by AnnexinV-FITC/PI staining based flow cytometric analysis (reference value: 3.33%); type: functional
[17] = tested on: HepG2; assay: Induction of apoptosis in human HepG2 cells assessed as viable cells at 200 nM incubated for 48 hrs by AnnexinV-FITC/PI staining based flow cytometric analysis (reference value: 92.0%); type: functional; details: read-out: Activity
[18] = tested on: HepG2; assay: Antimigratory activity in human HepG2 cells assessed as reduction in wound closure by scratch assay; type: functional, cell-based; details: dose 50-200 nM
[19] = tested on: HepG2; assay: Induction of cell cycle arrest in human HepG2 cells assessed as decrease in G1 phase cells at 50 nM incubated for 24 hrs by PI staining based flow cytometric analysis (reference value: 73.85%); type: functional; design: scale not given: the % may be the effect or the level left
[20] = tested on: HepG2; assay: Induction of apoptosis in human HepG2 cells assessed as early apoptotic cells at 100 nM incubated for 48 hrs by AnnexinV-FITC/PI staining based flow cytometric analysis (reference value: 1.83%); type: functional
[21] = tested on: HepG2; assay: Induction of apoptosis in human HepG2 cells assessed as total apoptotic cells at 100 nM incubated for 48 hrs by AnnexinV-FITC/PI staining based flow cytometric analysis (reference value: 5.16%); type: functional
[22] = tested on: HepG2; assay: Induction of apoptosis in human HepG2 cells assessed as viable cells at 100 nM incubated for 48 hrs by AnnexinV-FITC/PI staining based flow cytometric analysis (reference value: 92.0%); type: functional; details: read-out: Activity
[23] = tested on: HepG2; assay: Induction of apoptosis in human HepG2 cells assessed as late apoptotic cells at 100 nM incubated for 48 hrs by AnnexinV-FITC/PI staining based flow cytometric analysis (reference value: 3.33%); type: functional
[24] = tested on: HepG2; assay: Induction of cell cycle arrest in human HepG2 cells assessed as increase in G2 phase cells at 200 nM incubated for 24 hrs by PI staining based flow cytometric analysis (reference value: 13.40%); type: functional
[25] = tested on: HepG2; assay: Antiproliferative activity against human HepG2 cells assessed as inhibition of cell growth; type: functional, cell-based
[26] = tested on: HepG2; assay: Induction of apoptosis in human HepG2 cells assessed as necrotic cells at 100 nM incubated for 48 hrs by AnnexinV-FITC/PI staining based flow cytometric analysis (reference value: 2.82%); type: functional
[27] = tested on: A549; assay: Antiproliferative activity against human A549 cells assessed as inhibition of cell growth; type: functional, cell-based
[28] = tested on: HepG2; assay: Induction of cell cycle arrest in human HepG2 cells assessed as decrease in S phase cells at 100 nM incubated for 24 hrs by PI staining based flow cytometric analysis (reference value: 12.75%); type: functional; design: scale not given: the % may be the effect or the level left
[29] = tested on: HepG2; assay: Induction of G2/M phase cell cycle arrest in human HepG2 cells assessed as increase in P21 protein expression by Western blot analysis; type: functional, cell-based; details: dose 50-200 nM
[30] = tested on: HepG2; assay: Induction of G2/M phase cell cycle arrest in human HepG2 cells assessed as decrease in cyclinB1 protein expression by Western blot analysis; type: functional, cell-based; details: dose 50-200 nM
[31] = molecular target: T1, Tubulin (Homo sapiens); assay: Disruption of microtubule organization in human HepG2 cells assessed as cell shrinkage at 50 to 200 nM by immunofluorescence staining based laser confocal microscopic analysis; details: dose 50-200 nM
[32] = tested on: HepG2; assay: Induction of apoptosis in human HepG2 cells assessed as necrotic cells at 50 nM incubated for 48 hrs by AnnexinV-FITC/PI staining based flow cytometric analysis (reference value: 2.82%); type: functional
[33] = tested on: HepG2; assay: Induction of cell cycle arrest in human HepG2 cells assessed as increase in G2 phase cells at 100 nM incubated for 24 hrs by PI staining based flow cytometric analysis (reference value: 13.40%); type: functional
[34] = tested on: HepG2; assay: Induction of apoptosis in human HepG2 cells assessed as necrotic cells at 200 nM incubated for 48 hrs by AnnexinV-FITC/PI staining based flow cytometric analysis (reference value: 2.82%); type: functional
[35] = tested on: HepG2; assay: Induction of cell cycle arrest in human HepG2 cells assessed as decrease in S phase cells at 200 nM incubated for 24 hrs by PI staining based flow cytometric analysis (reference value: 12.75%); type: functional; design: scale not given: the % may be the effect or the level left
[36] = molecular target: T1, Tubulin (Homo sapiens); assay: Inhibition of tubulin polymerization (unknown origin) assessed as decrease in fluorescence intensity at 2 uM; type: protein-complex assay; details: time 1000-2000 min, TDE = time-dependent effect

Activity [2]: Active
Activity [10]: Active
IC50 [14]: 70 nM
IC50 [25]: 110 nM
IC50 [27]: 800 nM
Activity [31]: Active
inhibition [36]: Tde
Structure (SMILES): COc1cc(Nc2nccc(-c3ccc4c(c3)OCCO4)n2)cc(OC)c1OC
Activity [1]: 21.5%
Activity [3]: 43.6%
Activity [4]: 10.9%
IC50 [5]: 100 nM
Activity [6]: 65.52%
Activity [7]: 33.7%
viability at 0.05 µM [8]: 61.5%
Activity [9]: 63.13%
Activity [11]: 26.08%
Activity [12]: Dose-Dependent Effect
Activity [13]: 38.4%
Activity [15]: 4.85%
Activity [16]: 16.9%
viability at 0.2 µM [17]: 63.3%
Activity [18]: Dose-Dependent Effect
Activity [19]: 69.07%
Activity [20]: 17.9%
Activity [21]: 41.3%
viability at 0.1 µM [22]: 57.9%
Activity [23]: 23.4%
Activity [24]: 35.99%
Activity [26]: 0.82%
Activity [28]: 6.95%
Activity [29]: Dose-Dependent Effect
Activity [30]: Dose-Dependent Effect
Activity [32]: 0.12%
Activity [33]: 27.53%
Activity [34]: 2.13%
Activity [35]: 0.88%
